Source: PMC12298648, “An Evaluation of the Cytotoxicity and Safety Profile of Usnic Acid for a Broad Panel of Human Cancers and Normal Cells with Respect to Its Enantiospecificity” (Molecules, 2025)
≈ marks a conversion by molar mass, not a printed value. Where two headings read alike, the source gives them in different places.

Tests used:
Nthy ori 3-1 = assay: MTT viability assay, normal thyroid follicular epithelial cells; format: cell-based, human; details: for IC50: Homo sapiens; for Cell viability: Nthy ori 3-1, 24 h
Text: (§1) Cell lines of different origins were used in the study and grouped as follows: prostate panel (human prostate carcinomas: DU145, derived from metastatic site: brain; grade IV PC3, derived from metastatic site: bone; LNCaP, derived from the metastatic site: lymph node; prostate epithelial, PNT2), colon panel (colorectal adenocarcinomas: HT29, originating from a primary tumor; Duke’s type C DLD-1, with the potential to lymph node metastasis; highly metastatic HCT116; colon epithelial cells CCD 841 CoN), thyroid panel (follicular thyroid carcinoma FTC133, anaplastic thyroid carcinoma 8505C, papillary thyroid carcinoma TPC-1, normal thyroid follicular epithelial Nthy-ori 3–1), breast panel (ER-positive breast adenocarcinoma MCF7, ER-negative breast adenocarcinoma MDA-MB-231, breast epithelial MCF10A), brain panel (neuroblastoma SH-SY5Y, glioblastoma U-87 MG, murine astrocytes C8D1A). All cell lines were purchased from Merck (Darmstadt, Germany).
(§2) Cells were grown under standard conditions (37 °C, 5% CO2) and culture media (DMEM/F12 for PNT2, PC3, FTC133, 8505 C, MDA-MB-231, TPC-1; DMEM Low Glucose for DU145; DMEM High Glucose for HCT116, DLD-1, SH-SY5Y, U87MG, C8D1A; MEM with NEAA for MCF7; MEM for CCD 841 CoN; McCoy’s for HT29; RPMI1640 with sodium pyruvate for LNCaP; DMEM/F12 with 20 ng/mL epidermal growth factor (EGF), 10 μg/mL insulin, 0.5 μg/mL hydrocortisone, 100 ng/mL cholera toxin) for MCF10A), supplemented with 10% fetal bovine serum (FBS) or 5% donor horse serum for MCF10A, and 1% antibiotics solution (10,000 U penicillin and 10 mg streptomycin/mL). The tested substances were prepared as 10 mg/mL stock solutions in DMSO and further diluted in the culture media to the working concentrations. Cells were treated with UA enantiomers at the concentration range of 0–50 µg/mL. The influence of DMSO on cell viability was also examined, with the final concentration […], and no toxic effect was noted.
(§3) The cells were seeded onto 96-well plates at a density of 1.5 × 10^4 cells/well. After 24 h UA enantiomers were added. Cell viability was determined after 24, 48, and 72 h by the MTT assay, as described previously. Doxorubicin was used as a reference cytostatic drug. All analyses were performed in triplicate; cell viability was expressed as % of control, untreated cells (mean ± SD), and IC50 values (concentration at which cell viability is inhibited by 50%), if possible.

MDA-MB-231 = assay: MTT viability assay, MDA-MB-231 breast cancer cells; format: cell-based, human; details: for IC50: Homo sapiens; for Cell viability: MDA-MB-231, 24 h
Text: as §1, §2, §3
(§4) The selectivity index (SI) was calculated, if possible, by dividing the IC50 value obtained for non-cancerous cells line by the IC50 values obtained for appropriate cancer cell line, as described previously. […] The values above 3 indicate good selectivity.

HCT116 = assay: MTT viability assay, HCT116 colon cancer cells; format: cell-based, human; details: for Cell viability: HCT116, 24 h; for IC50: Homo sapiens, HCT-116
Text: as §1, §2, §3

DLD-1 = assay: MTT viability assay, DLD-1 colon cancer cells; format: cell-based, human; details: for Cell viability: DLD-1, 24 h; for IC50: Homo sapiens
Text: as §1, §2, §3

DU145 = assay: MTT viability assay, DU145 prostate cancer cells; format: cell-based, human; details: for Cell viability: DU145, 24 h; for IC50: Homo sapiens, DU-145
Text: as §1, §2, §3, §4

glioblastoma U251 cells = system: glioblastoma U251 cells; design: method as in PMID 18558490; details: U251, 72 h, cited from earlier work
MCF7 cells = system: MCF7 cells; design: method as in not printed ('another' study); details: MCF7, 72 h, ref not given ('another' study), cited from earlier work
MCF7 = assay: MTT viability assay, MCF7 breast cancer cells; format: cell-based, human; details: for IC50: Homo sapiens; for Cell viability: MCF7, 24 h
Text: as §1, §2, §3, §4

HepG2 cells = system: HepG2 cells; design: method as in PMID 40368021; details: cited from earlier work
PNT2 = assay: MTT viability assay, normal prostate epithelial cells; format: cell-based, human; details: for IC50: Homo sapiens; for Cell viability: PNT2, 24 h
Text: as §1, §2, §3

[1] = recalculated from µM by the authors

CC(=O)C1=C(O)C=C2Oc3c(C(C)=O)c(O)c(C)c(O)c3[C@@]2(C)C1=O [UA(+), (+)-usnic acid]
IC50 (Nthy ori 3-1; Nthy-ori 3-1, 48 h): > 50 µg/mL | IC50 (Nthy ori 3-1; Nthy-ori 3-1, 72 h): 33.2 µg/mL (≈ 96.4 µM) | Cell viability (Nthy ori 3-1; 2.5 µg/mL): 97.57 % of control | Cell viability (Nthy ori 3-1; 5 µg/mL): 100.56 % of control | Cell viability (Nthy ori 3-1; 10 µg/mL): 95.69 % of control | Cell viability (Nthy ori 3-1; 20 µg/mL): 93.96 % of control | Cell viability (Nthy ori 3-1; 30 µg/mL): 94.51 % of control | Cell viability (Nthy ori 3-1; 40 µg/mL): 97.29 % of control | Cell viability (Nthy ori 3-1; 50 µg/mL): 97.71 % of control | IC50 (MDA-MB-231; MDA-MB-231, 48 h): > 50 µg/mL | IC50 (MDA-MB-231; MDA-MB-231, 72 h): 15.8 µg/mL (≈ 45.9 µM) | selectivity index (SI) (MDA-MB-231; IC50 MCF10A / IC50 MDA-MB-231, 72 h): 2.83 | Cell viability (MDA-MB-231; 2.5 µg/mL): 100.36 % of control | Cell viability (MDA-MB-231; 5 µg/mL): 95.55 % of control | Cell viability (MDA-MB-231; 10 µg/mL): 87.62 % of control | Cell viability (MDA-MB-231; 20 µg/mL): 81.99 % of control | Cell viability (MDA-MB-231; 30 µg/mL): 77.62 % of control | Cell viability (MDA-MB-231; 40 µg/mL): 67.93 % of control | Cell viability (MDA-MB-231; 50 µg/mL): 69.24 % of control | Cell viability (HCT116; 2.5 µg/mL): 100.35 % of control | Cell viability (HCT116; 5 µg/mL): 103.97 % of control | Cell viability (HCT116; 10 µg/mL): 85.60 % of control | Cell viability (HCT116; 20 µg/mL): 71.99 % of control | Cell viability (HCT116; 30 µg/mL): 68.16 % of control | Cell viability (HCT116; 40 µg/mL): 67.02 % of control | Cell viability (HCT116; 50 µg/mL): 61.49 % of control | IC50 (HCT116; HCT116, 48 h): 26.4 µg/mL (≈ 76.7 µM) | IC50 (HCT116; HCT116, 72 h): 10.5 µg/mL (≈ 30.5 µM) | Cell viability (DLD-1; 2.5 µg/mL): 96.51 % of control | Cell viability (DLD-1; 5 µg/mL): 89.29 % of control | Cell viability (DLD-1; 10 µg/mL): 75.63 % of control | Cell viability (DLD-1; 20 µg/mL): 82.11 % of control | Cell viability (DLD-1; 30 µg/mL): 71.08 % of control | Cell viability (DLD-1; 40 µg/mL): 68.28 % of control | Cell viability (DLD-1; 50 µg/mL): 68.46 % of control | IC50 (DLD-1; DLD-1, 48 h): 26.1 µg/mL (≈ 75.8 µM) | IC50 (DLD-1; DLD-1, 72 h): 19.6 µg/mL (≈ 56.9 µM) | Cell viability (DU145; 2.5 µg/mL): 102.26 % of control | Cell viability (DU145; 5 µg/mL): 94.38 % of control | Cell viability (DU145; 10 µg/mL): 86.92 % of control | Cell viability (DU145; 20 µg/mL): 87.54 % of control | Cell viability (DU145; 30 µg/mL): 72.41 % of control | Cell viability (DU145; 40 µg/mL): 68.15 % of control | Cell viability (DU145; 50 µg/mL): 67.13 % of control | IC50 (DU145; DU145, 48 h): 11.5 µg/mL (≈ 33.4 µM) | IC50 (DU145; DU145, 72 h): 12.1 µg/mL (≈ 35.1 µM) | selectivity index (SI) (DU145; IC50 PNT2 / IC50 DU145, 48 h): 3.25 | selectivity index (SI) (DU145; IC50 PNT2 / IC50 DU145, 48 h, listed as (+)-UA): exceeding 3 | selectivity index (SI) (DU145; IC50 PNT2 / IC50 DU145, 72 h): 1.68 | IC50 (glioblastoma U251 cells; [1]): 6.7 µg/mL | IC50 (glioblastoma U251 cells; read-out: IC50): 19.5 µM | IC50 (MCF7 cells; [1]): 36.3 µg/mL | IC50 (MCF7 cells; read-out: IC50): 105 µM | IC50 (MCF7; MCF7, 48 h): > 50 µg/mL | IC50 (MCF7; MCF7, 72 h): > 50 µg/mL | Cell viability (MCF7; 2.5 µg/mL): 106.54 % of control | Cell viability (MCF7; 5 µg/mL): 108.77 % of control | Cell viability (MCF7; 10 µg/mL): 108.15 % of control | Cell viability (MCF7; 20 µg/mL): 103.95 % of control | Cell viability (MCF7; 30 µg/mL): 89.38 % of control | Cell viability (MCF7; 40 µg/mL): 87.41 % of control | Cell viability (MCF7; 50 µg/mL): 87.78 % of control | selectivity index (SI) (MCF7; MCF7 cells, 72 h): ~3 | IC50 (hepatotoxicity) (HepG2 cells; HepG2, 48 h): 28.2 µg/mL (≈ 81.9 µM) | IC50 (hepatotoxicity) (HepG2 cells; HepG2, 72 h): 24.4 µg/mL (≈ 70.9 µM) | IC50 (PNT2; PNT2, 48 h): 37.4 µg/mL (≈ 109 µM) | IC50 (PNT2; PNT2, 72 h): 20.4 µg/mL (≈ 59.2 µM) | Cell viability (PNT2; 5 µg/mL): 101.11 % of control | Cell viability (PNT2; 10 µg/mL): 104.00 % of control | Cell viability (PNT2; 20 µg/mL): 96.96 % of control | Cell viability (PNT2; 30 µg/mL): 68.67 % of control | Cell viability (PNT2; 40 µg/mL): 59.70 % of control | Cell viability (PNT2; 50 µg/mL): 56.52 % of control
